#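 96-well plates; 48 h exposure; 5 concentrations. Endpoints by linear interpolation between flanking doses. Not reached: highest tested concentration assigned. Here, GI50 denotes the concentration required for 50% inhibition of growth.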 Activity calls are given as the source filed them. No stated cut-off is given here; in the data, active = GI50 up to about 1.1 µM and inactive = higher.
# Columns and labels:
# Test in all cases: DTP human tumour cell line panel, 48 h
# [1] = system: A498
# [2] = system: ACHN
# [3] = system: CCRF-CEM
# [4] = system: COLO 205
# [5] = system: DMS-114
# [6] = system: HL-60
# [7] = system: HOP-62
# [8] = system: HOP-92
# [9] = system: HT-29
# [10] = system: IGROV-1
# [11] = system: K562
# [12] = system: KM-20L2
# [13] = system: KM12
# [14] = system: LXFL 529
# [15] = system: M14
# [16] = system: M19-MEL
# [17] = system: MOLT-4
# [18] = system: Malme-3M
# [19] = system: NCI-H23
# [20] = system: NCI-H460
# [21] = system: NCI-H522
# [22] = system: OVCAR-3
# [23] = system: OVCAR-4
# [24] = system: OVCAR-5
# [25] = system: RPMI-8226
# [26] = system: RXF 393
# [27] = system: SF-268
# [28] = system: SF-295
# [29] = system: SK-MEL-28
# [30] = system: SK-MEL-2
# [31] = system: SK-OV-3
# [32] = system: SNB-19
# [33] = system: SNB-75
# [34] = system: SNB-78
# [35] = system: SR
# [36] = system: U-251
# [37] = system: UACC-257
# [38] = system: UACC-62
# [39] = system: UO-31
# [40] = system: 786-0
# [41] = system: A549
# [42] = system: BT-549
# [43] = system: CAKI-1
# [44] = system: DU-145
# [45] = system: EKVX
# [46] = system: HCC 2998
# [47] = system: HCT-116
# [48] = system: HCT-15
# [49] = system: Hs-578T
# [50] = system: LOX IMVI
# [51] = system: MCF7
# [52] = system: MDA-MB-231
# [53] = system: MDA-MB-435
# [54] = system: MDA-N
# [55] = system: NCI-H226
# [56] = system: NCI/ADR-RES
# [57] = system: OVCAR-8
# [58] = system: PC-3
# [59] = system: SF-539
# [60] = system: SK-MEL-5
# [61] = system: SN12C
# [62] = system: SW-620
# [63] = system: T47D
# [64] = system: TK-10
smiles,measurement,setting,value
CCO[C@@H]1OC(=O)[C@@](C)(C(C)=O)[C@@H]1C,GI50,[1],> 100000 nM (inactive)
same,GI50,[2],> 100000 nM (inactive)
same,GI50,[3],13000 nM (inactive)
same,GI50,[4],87700 nM (inactive)
same,GI50,[5],19100 nM (inactive)
same,GI50,[6],23000 nM (inactive)
same,GI50,[7],20800 nM (inactive)
same,GI50,[8],26100 nM (inactive)
same,GI50,[9],17500 nM (inactive)
same,GI50,[10],36500 nM (inactive)
same,GI50,[11],30500 nM (inactive)
same,GI50,[12],41400 nM (inactive)
same,GI50,[13],28400 nM (inactive)
same,GI50,[14],19500 nM (inactive)
same,GI50,[15],26000 nM (inactive)
same,GI50,[16],19100 nM (inactive)
same,GI50,[17],19200 nM (inactive)
same,GI50,[18],23300 nM (inactive)
same,GI50,[19],14500 nM (inactive)
same,GI50,[20],> 100000 nM (inactive)
same,GI50,[21],> 100000 nM (inactive)
same,GI50,[22],14400 nM (inactive)
same,GI50,[23],29000 nM (inactive)
same,GI50,[24],60000 nM (inactive)
same,GI50,[25],18700 nM (inactive)
same,GI50,[26],24100 nM (inactive)
same,GI50,[27],18300 nM (inactive)
same,GI50,[28],20100 nM (inactive)
same,GI50,[29],15700 nM (inactive)
same,GI50,[30],20400 nM (inactive)
same,GI50,[31],43600 nM (inactive)
same,GI50,[32],19100 nM (inactive)
same,GI50,[33],3270 nM (inactive)
same,GI50,[34],25000 nM (inactive)
same,GI50,[35],25500 nM (inactive)
same,GI50,[36],21000 nM (inactive)
same,GI50,[37],24400 nM (inactive)
same,GI50,[38],20900 nM (inactive)
same,GI50,[39],37900 nM (inactive)
CCOC(=O)c1c(SCCN(CC)CC)n(-c2ccccc2)c(=S)n(-c2ccccc2)c1=O,GI50,[40],1770 nM (inactive)
same,GI50,[1],15200 nM (inactive)
same,GI50,[41],3160 nM (inactive)
same,GI50,[2],1730 nM (inactive)
same,GI50,[42],7130 nM (inactive)
same,GI50,[43],2160 nM (inactive)
same,GI50,[3],1260 nM (inactive)
same,GI50,[4],2500 nM (inactive)
same,GI50,[44],1680 nM (inactive)
same,GI50,[45],9590 nM (inactive)
same,GI50,[46],1730 nM (inactive)
same,GI50,[47],3870 nM (inactive)
same,GI50,[48],2540 nM
same,GI50,[6],1730 nM (inactive)
same,GI50,[7],17300 nM (inactive)
same,GI50,[8],1920 nM (inactive)
same,GI50,[9],4470 nM (inactive)
same,GI50,[49],3320 nM (inactive)
same,GI50,[10],5160 nM (inactive)
same,GI50,[11],1720 nM (inactive)
same,GI50,[13],14300 nM (inactive)
same,GI50,[50],1950 nM (inactive)
same,GI50,[15],1740 nM (inactive)
same,GI50,[51],1270 nM (inactive)
same,GI50,[52],3330 nM (inactive)
same,GI50,[53],2230 nM (inactive)
same,GI50,[54],2700 nM (inactive)
same,GI50,[17],1090 nM (active)
same,GI50,[18],1420 nM (inactive)
same,GI50,[55],21500 nM (inactive)
same,GI50,[19],15900 nM (inactive)
same,GI50,[20],6930 nM (inactive)
same,GI50,[21],1560 nM (inactive)
same,GI50,[56],32100 nM (inactive)
same,GI50,[22],1840 nM (inactive)
same,GI50,[23],9660 nM (inactive)
same,GI50,[24],30300 nM (inactive)
same,GI50,[57],2640 nM (inactive)
same,GI50,[58],2050 nM (inactive)
same,GI50,[25],635 nM (active)
same,GI50,[26],1720 nM (inactive)
same,GI50,[27],4560 nM (inactive)
same,GI50,[28],34200 nM (inactive)
same,GI50,[59],4480 nM (inactive)
same,GI50,[29],2620 nM (inactive)
same,GI50,[30],13400 nM (inactive)
same,GI50,[60],2610 nM (inactive)
same,GI50,[31],19300 nM (inactive)
same,GI50,[61],1910 nM (inactive)
same,GI50,[32],17900 nM (inactive)
same,GI50,[33],8810 nM (inactive)
same,GI50,[35],714 nM (active)
same,GI50,[62],2740 nM (inactive)
same,GI50,[63],2550 nM (inactive)
same,GI50,[64],1810 nM (inactive)
same,GI50,[36],15600 nM (inactive)
same,GI50,[37],2280 nM (inactive)
same,GI50,[38],4610 nM (inactive)
same,GI50,[39],1720 nM (inactive)
Nc1ncnn2c(C3OC(CO)C(O)C3O)ccc12 (configuration not stated),GI50,[40],76.6 nM (active)
same,GI50,[1],155 nM (active)
same,GI50,[41],155 nM (active)
same,GI50,[2],170 nM (active)
same,GI50,[42],175 nM (active)
same,GI50,[43],235 nM (active)
same,GI50,[3],144 nM (active)
same,GI50,[4],188 nM (active)
same,GI50,[44],230 nM (active)
same,GI50,[45],366 nM (active)
same,GI50,[46],426 nM (active)
same,GI50,[47],21.6 nM (active)
same,GI50,[48],138 nM
same,GI50,[6],105 nM (active)
same,GI50,[7],261 nM (active)
same,GI50,[8],17.3 nM (active)
same,GI50,[9],148 nM (active)
same,GI50,[49],87.5 nM (active)
same,GI50,[10],210 nM (active)
same,GI50,[11],163 nM (active)
same,GI50,[13],107 nM (active)
same,GI50,[50],20.1 nM (active)
same,GI50,[15],83.2 nM (active)
same,GI50,[51],164 nM (active)
same,GI50,[52],153 nM (active)
same,GI50,[53],137 nM (active)
same,GI50,[54],163 nM (active)
same,GI50,[17],153 nM (active)
same,GI50,[18],69.8 nM (active)
same,GI50,[55],235 nM (active)
same,GI50,[19],137 nM (active)
same,GI50,[20],97 nM (active)
same,GI50,[21],237 nM (active)
same,GI50,[56],237 nM (active)
same,GI50,[22],169 nM (active)
same,GI50,[23],90.6 nM (active)
same,GI50,[24],338 nM (active)
same,GI50,[57],99.1 nM (active)
same,GI50,[58],182 nM (active)
same,GI50,[25],147 nM (active)
same,GI50,[26],226 nM (active)
same,GI50,[27],236 nM (active)
same,GI50,[28],323 nM (active)
same,GI50,[59],106 nM (active)
same,GI50,[29],164 nM (active)
same,GI50,[30],148 nM (active)
same,GI50,[60],226 nM (active)
same,GI50,[31],226 nM (active)
same,GI50,[61],195 nM (active)
same,GI50,[32],421 nM (active)
same,GI50,[33],329 nM (active)
same,GI50,[35],36.4 nM (active)
same,GI50,[62],123 nM (active)
same,GI50,[63],291 nM (active)
same,GI50,[64],214 nM (active)
same,GI50,[36],125 nM (active)
same,GI50,[37],70.3 nM (active)
same,GI50,[38],136 nM (active)
same,GI50,[39],120 nM (active)
